Data from BindingDB's records for patent US20240002393 (Hoffmann-La Roche, 2024).

Assays:
[1] = target: T1, Gamma-aminobutyric acid receptor subunit alpha-2/beta-2/gamma-1 (Human, UniProt P47869+P47870+Q8N1C3); experiment: Electrophysiology Assay
T1 sequence (Q8N1C3 whole entry): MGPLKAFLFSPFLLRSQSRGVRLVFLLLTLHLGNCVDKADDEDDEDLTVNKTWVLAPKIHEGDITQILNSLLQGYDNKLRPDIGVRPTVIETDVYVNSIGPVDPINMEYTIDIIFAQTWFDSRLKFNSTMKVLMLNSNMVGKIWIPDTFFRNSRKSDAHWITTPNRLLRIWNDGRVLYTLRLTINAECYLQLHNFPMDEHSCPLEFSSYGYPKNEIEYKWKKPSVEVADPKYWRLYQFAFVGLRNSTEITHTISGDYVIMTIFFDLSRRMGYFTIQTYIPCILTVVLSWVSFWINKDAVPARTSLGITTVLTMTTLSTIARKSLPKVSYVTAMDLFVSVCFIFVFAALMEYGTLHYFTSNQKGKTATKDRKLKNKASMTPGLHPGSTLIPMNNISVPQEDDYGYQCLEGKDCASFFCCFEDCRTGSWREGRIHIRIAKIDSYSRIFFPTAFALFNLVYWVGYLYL
T1 sequence (P47869 whole entry): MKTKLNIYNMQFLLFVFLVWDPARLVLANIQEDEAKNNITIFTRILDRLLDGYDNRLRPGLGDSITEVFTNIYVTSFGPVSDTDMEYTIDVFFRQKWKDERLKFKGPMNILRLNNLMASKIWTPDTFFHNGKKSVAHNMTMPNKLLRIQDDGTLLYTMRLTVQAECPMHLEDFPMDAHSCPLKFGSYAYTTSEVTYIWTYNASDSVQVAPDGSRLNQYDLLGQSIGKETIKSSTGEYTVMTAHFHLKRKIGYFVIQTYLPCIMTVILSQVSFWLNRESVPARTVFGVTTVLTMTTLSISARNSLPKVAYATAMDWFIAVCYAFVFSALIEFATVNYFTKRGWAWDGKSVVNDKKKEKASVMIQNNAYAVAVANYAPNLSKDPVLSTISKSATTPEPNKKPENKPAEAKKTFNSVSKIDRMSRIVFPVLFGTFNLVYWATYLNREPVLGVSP
T1 sequence (P47870 whole entry): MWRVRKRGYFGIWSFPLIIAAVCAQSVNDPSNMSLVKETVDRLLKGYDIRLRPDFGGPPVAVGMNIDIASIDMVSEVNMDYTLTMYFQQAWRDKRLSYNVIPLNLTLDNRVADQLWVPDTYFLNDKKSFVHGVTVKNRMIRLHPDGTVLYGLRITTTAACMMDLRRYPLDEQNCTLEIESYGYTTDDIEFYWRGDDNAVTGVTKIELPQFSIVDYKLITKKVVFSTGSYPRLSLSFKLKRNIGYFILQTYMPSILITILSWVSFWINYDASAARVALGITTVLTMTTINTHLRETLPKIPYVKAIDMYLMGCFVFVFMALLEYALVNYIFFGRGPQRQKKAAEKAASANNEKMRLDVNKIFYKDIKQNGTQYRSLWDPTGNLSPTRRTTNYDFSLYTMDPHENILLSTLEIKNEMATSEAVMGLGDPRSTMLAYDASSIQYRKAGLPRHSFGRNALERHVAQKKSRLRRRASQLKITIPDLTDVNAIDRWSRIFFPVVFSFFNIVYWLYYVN
Experimental: Table 2: Electrophysiological experiments were performed using the Roboocyte instrument (MultiChannelSystems, Reutlingen, Germany) on days 3 to 5 after the micro-injection of mRNA. During the experiment the oocytes were constantly superfused by a solution containing (in mM) NaCl 90, KCl 1, HEPES 5, MgCl2 1 CaCl2 1 (pH 7.4). Oocytes were impaled by two glass microelectrodes (resistance: 0.5-0.8 MΩ) which were filled with a solution containing KCl 1M+K-acetate 1.5 M and voltage-clamped to −80 mV. The recordings were performed at room temperature using the Roboocyte two-electrode voltage clamp system (Multichannelsystem). After an initial equilibration period of 1.5 min GABA was added for 1.5 min at a concentration evoking approximately 20% of a maximal current response (EC20). After another rest interval of 2.5 min GABA was again added evoking a response of similar amplitude and shape. […] Current traces were recorded at a digitization rate of 10 Hz during and shortly before and after the GABA application.

[2] = target: T2, Gamma-aminobutyric acid receptor subunit alpha-1/beta-3/gamma-2 (Homo sapiens, UniProt P14867+P18507+P28472)
T2 sequence (P14867 whole entry): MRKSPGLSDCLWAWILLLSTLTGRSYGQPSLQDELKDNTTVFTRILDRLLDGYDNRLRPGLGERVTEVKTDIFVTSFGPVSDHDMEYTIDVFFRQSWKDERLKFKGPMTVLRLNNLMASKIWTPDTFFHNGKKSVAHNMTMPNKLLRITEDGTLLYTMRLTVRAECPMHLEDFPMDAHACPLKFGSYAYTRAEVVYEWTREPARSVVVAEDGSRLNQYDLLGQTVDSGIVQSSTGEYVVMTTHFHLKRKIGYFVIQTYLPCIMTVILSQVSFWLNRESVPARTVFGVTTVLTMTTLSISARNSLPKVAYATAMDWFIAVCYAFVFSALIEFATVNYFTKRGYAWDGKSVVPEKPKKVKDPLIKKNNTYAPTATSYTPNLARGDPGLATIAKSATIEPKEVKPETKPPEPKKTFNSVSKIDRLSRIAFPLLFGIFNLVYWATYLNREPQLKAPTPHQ
T2 sequence (P18507 whole entry): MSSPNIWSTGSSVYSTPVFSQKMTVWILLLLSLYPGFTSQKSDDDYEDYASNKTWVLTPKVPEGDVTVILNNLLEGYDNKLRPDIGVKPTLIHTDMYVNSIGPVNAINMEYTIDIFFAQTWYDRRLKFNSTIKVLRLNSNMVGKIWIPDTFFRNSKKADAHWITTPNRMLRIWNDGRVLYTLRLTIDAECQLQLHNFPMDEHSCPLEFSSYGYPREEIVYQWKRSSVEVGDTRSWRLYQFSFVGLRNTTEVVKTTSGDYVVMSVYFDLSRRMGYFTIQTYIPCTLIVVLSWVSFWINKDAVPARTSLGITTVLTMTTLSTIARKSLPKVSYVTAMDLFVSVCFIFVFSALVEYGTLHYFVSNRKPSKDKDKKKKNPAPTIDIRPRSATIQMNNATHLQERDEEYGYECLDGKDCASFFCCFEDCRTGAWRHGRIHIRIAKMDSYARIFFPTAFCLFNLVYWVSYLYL
T2 sequence (P28472 whole entry): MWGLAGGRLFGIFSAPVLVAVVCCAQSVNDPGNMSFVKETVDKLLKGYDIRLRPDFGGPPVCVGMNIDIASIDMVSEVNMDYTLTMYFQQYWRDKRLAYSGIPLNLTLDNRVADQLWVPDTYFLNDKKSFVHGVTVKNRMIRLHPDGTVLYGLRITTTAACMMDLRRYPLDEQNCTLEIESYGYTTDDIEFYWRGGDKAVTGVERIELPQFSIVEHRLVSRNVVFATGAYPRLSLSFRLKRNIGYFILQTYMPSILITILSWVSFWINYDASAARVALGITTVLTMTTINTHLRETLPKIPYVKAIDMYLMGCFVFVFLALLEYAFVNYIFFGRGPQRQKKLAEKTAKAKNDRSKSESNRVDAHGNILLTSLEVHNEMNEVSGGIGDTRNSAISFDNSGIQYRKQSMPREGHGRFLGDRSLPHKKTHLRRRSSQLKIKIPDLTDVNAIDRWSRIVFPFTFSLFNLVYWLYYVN

CCc1nnc2n1-c1ccc(C(F)(F)F)c(Cl)c1C(c1c(F)cccc1F)=N[C@H]2C [US20240002393, Example 108]
Ki [1]: 0.047 µM
Ki [2]: 2.37 µM
